What all share (assay type): cell-based
One assay has as its target T1, M3 muscarinic receptor (Homo sapiens, UniProt P20309).
T1 construct: expressed in transfected cells; host or cells: CHO (M3-CHO)
Description: Functional mobilization of intracellular calcium (FLIPR), M3-CHO cells. To be noted: for M3 Activity: M3-CHO cells, calcium mobilization (FLIPR). The method, boiled down: (§1)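 Calcium mobilisation read by FLIPR over 60 s (ex 488/em 540 nm) in recombinant muscarinic CHO lines loaded with calcium dye plus 1 mM probenecid. Compounds tested as agonists alone, or as inhibitors against EC80 carbachol after 15 min pre-incubation or co-addition; 0.5% DMSO; efficacy scaled to carbachol maximal response.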

In another assay the target is T2, M1 muscarinic receptor (Homo sapiens, UniProt P11229).
T2 construct: expressed in transfected cells; host or cells: CHO (M1-CHO)
T2 sequence (P11229 1-460): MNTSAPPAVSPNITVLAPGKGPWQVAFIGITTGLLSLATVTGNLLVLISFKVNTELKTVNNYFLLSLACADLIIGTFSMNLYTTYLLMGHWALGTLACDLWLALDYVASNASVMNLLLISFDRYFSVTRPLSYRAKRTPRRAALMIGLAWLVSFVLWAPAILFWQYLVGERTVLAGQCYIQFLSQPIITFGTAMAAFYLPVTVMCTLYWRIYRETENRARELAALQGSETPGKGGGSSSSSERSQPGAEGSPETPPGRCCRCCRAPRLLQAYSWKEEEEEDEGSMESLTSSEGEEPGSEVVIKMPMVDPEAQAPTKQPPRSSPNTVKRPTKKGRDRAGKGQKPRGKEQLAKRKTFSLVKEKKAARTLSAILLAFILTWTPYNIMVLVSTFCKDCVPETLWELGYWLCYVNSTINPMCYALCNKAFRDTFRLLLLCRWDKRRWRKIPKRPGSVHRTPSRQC
In words: Functional mobilization of intracellular calcium (FLIPR), M1-CHO cells. Conditions: for M1 Activity: M1-CHO cells, calcium mobilization (FLIPR). The method, boiled down: as §1
On the technique in general: Calcium flux is commonly read through the fluorescence of an indicator in the cells.

Another assay addresses T3, M4 muscarinic receptor (Homo sapiens, UniProt P08173).
T3 construct: expressed in transfected cells; host or cells: CHO (M4-CHO)
T3 sequence (P08173 1-479): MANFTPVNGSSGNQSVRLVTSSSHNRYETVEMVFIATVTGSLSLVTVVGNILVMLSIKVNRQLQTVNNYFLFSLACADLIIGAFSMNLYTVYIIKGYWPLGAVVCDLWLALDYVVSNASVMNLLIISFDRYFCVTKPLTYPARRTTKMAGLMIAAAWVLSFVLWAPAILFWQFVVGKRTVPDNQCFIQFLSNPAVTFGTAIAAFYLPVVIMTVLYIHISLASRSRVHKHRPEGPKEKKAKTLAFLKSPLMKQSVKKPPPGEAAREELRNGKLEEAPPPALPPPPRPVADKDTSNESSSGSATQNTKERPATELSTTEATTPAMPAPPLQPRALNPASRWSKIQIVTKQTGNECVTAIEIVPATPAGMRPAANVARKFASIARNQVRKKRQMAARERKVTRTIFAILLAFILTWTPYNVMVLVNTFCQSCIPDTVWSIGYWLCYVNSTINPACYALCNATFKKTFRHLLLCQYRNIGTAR
In words: Functional mobilization of intracellular calcium (FLIPR), M4-CHO cells. Conditions: for M4 Activity: M4-CHO cells, calcium mobilization (FLIPR). Put shortly: as §1

The next assay deals with T4, M2 muscarinic receptor (Homo sapiens, UniProt P08172).
T4 construct: expressed in transfected cells; host or cells: CHO (M2-CHO)
T4 sequence (P08172 1-466): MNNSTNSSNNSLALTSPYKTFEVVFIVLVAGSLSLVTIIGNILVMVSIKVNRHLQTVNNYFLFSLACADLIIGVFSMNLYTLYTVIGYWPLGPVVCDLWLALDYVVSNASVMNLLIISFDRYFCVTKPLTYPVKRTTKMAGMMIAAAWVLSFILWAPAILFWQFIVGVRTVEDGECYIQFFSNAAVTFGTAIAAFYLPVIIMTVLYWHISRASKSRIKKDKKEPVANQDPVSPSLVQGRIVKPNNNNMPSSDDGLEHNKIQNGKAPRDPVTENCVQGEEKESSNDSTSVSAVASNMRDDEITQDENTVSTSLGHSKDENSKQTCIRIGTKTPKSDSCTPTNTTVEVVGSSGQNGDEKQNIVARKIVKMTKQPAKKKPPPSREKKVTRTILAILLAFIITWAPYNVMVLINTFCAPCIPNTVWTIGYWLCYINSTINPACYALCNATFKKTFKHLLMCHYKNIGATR
Description: Functional mobilization of intracellular calcium (FLIPR), M2-CHO cells. Conditions: for M2 Activity: M2-CHO cells, calcium mobilization (FLIPR). Put shortly: as §1

The mark [1] stands for this setting: 100% efficacy is the maximum response obtained with the Carbachol control.

T1 sequence (P20309 whole entry): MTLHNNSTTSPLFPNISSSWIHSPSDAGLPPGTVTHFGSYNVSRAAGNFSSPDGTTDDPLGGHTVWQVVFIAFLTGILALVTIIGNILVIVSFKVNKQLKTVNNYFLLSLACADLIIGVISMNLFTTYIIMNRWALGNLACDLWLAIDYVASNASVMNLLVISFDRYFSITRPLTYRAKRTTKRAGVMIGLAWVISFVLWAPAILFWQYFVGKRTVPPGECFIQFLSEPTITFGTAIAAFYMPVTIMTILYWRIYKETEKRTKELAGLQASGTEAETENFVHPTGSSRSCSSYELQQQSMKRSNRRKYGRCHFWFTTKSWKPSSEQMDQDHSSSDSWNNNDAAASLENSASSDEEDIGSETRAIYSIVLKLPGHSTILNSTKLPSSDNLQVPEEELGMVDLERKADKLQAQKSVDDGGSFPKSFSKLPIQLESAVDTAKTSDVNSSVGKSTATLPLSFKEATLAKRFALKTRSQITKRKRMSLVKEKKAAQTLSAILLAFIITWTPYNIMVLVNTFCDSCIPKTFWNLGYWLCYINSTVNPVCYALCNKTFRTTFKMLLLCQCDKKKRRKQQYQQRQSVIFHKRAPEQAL

What is called Emax is the greatest response seen or fitted, relative to the assay's reference. On to `CCOC(=O)N1CCC(N2CCC(c3cc(Cl)ccc3OC)CC2)CC1` [Compound 392], for which the Emax on M3 muscarinic receptor (setting [1]), at M1 muscarinic receptor (setting [1]), at M4 muscarinic receptor (setting [1]) and on M2 muscarinic receptor (setting [1]) was 25 to 100% throughout. Moreover, at M3 muscarinic receptor, the “M3 Activity” value is given as “+++ (activity was measured to be less than 1.0 μM)”. For the same compound, the “M1 Activity” value at M1 muscarinic receptor was “+++ (activity was measured to be less than 1.0 μM)”. Also, the “M4 Activity” value at M4 muscarinic receptor is on record as “+++ (activity was measured to be less than 1.0 μM)”. For the same compound, at M2 muscarinic receptor, the “M2 Activity” value is on record as “+++ (activity was measured to be less than 1.0 μM)”.

In the case of `COc1ccc(-c2ccc(OC)c(C3CCN([C@@H]4C[C@H]5CC[C@H]4C5)CC3)c2)cc1` [Compound 393], the maximal response (Emax) at M3 muscarinic receptor (setting [1]) was below 25%; at M1 muscarinic receptor (setting [1]), below 25%; at M4 muscarinic receptor (setting [1]), 25 to 100%; at M2 muscarinic receptor (setting [1]), below 25%. Moreover, the “M3 Activity” value at M3 muscarinic receptor is “+ (activity was measured to be greater than 5.0 μM)”. Further, the “M1 Activity” value on M1 muscarinic receptor was “+ (activity was measured to be greater than 5.0 μM)”. Also, the “M4 Activity” value at M4 muscarinic receptor was “+ (activity was measured to be greater than 5.0 μM)”. Further, the “M2 Activity” value at M2 muscarinic receptor is “+ (activity was measured to be greater than 5.0 μM)”.

For the compound `COc1ccc(Cl)cc1C1(O)CCN(C[C@H]2C[C@H]3C=C[C@H]2C3)CC1` [Compound 394], the maximal effect (Emax) on M3 muscarinic receptor (setting [1]) was below 25%; on M1 muscarinic receptor (setting [1]) it was below 25%; at M4 muscarinic receptor (setting [1]) it was 25 to 100%; on M2 muscarinic receptor (setting [1]) it was 25 to 100%. Further, at M3 muscarinic receptor, the “M3 Activity” value is reported as “+ (activity was measured to be greater than 5.0 μM)”. Besides, the “M1 Activity” value on M1 muscarinic receptor was “+ (activity was measured to be greater than 5.0 μM)”. Moreover, on M4 muscarinic receptor, the “M4 Activity” value was “+++ (activity was measured to be less than 1.0 μM)”. In addition, at M2 muscarinic receptor, the “M2 Activity” value is “+ (activity was measured to be greater than 5.0 μM)”.

`Clc1cccc(-c2ccccc2C2CCN([C@H]3C[C@H]4CC[C@H]3C4)CC2)c1` [Compound 395]: the maximum response (Emax) is below 25% on M3 muscarinic receptor (setting [1]), below 25% at M1 muscarinic receptor (setting [1]), 25 to 100% on M4 muscarinic receptor (setting [1]) and below 25% on M2 muscarinic receptor (setting [1]). Also, the “M3 Activity” value at M3 muscarinic receptor is recorded as “+ (activity was measured to be greater than 5.0 μM)”. In addition, at M1 muscarinic receptor, the “M1 Activity” value is reported as “+ (activity was measured to be greater than 5.0 μM)”. Besides, the “M4 Activity” value on M4 muscarinic receptor is on record as “+ (activity was measured to be greater than 5.0 μM)”. Also, the “M2 Activity” value on M2 muscarinic receptor was “+ (activity was measured to be greater than 5.0 μM)”.

As to `COc1ccc(Cl)cc1C1CCN(C2CCC(=NOCc3ccccc3)CC2)CC1` (stereo not shown) [Compound 396], the “M3 Efficacy” value on M3 muscarinic receptor (setting [1]) is listed as “+ (efficacy was calculated to be less than 25%)”. In addition, the “M3 Activity” value on M3 muscarinic receptor is on record as “+ (activity was measured to be greater than 5.0 μM)”. The “M1 Efficacy” value on M1 muscarinic receptor (setting [1]) is “++ (efficacy was calculated to be from 100% to 25%)”. Moreover, the “M1 Activity” value at M1 muscarinic receptor is recorded as “+ (activity was measured to be greater than 5.0 μM)”. Further, at M4 muscarinic receptor (setting [1]), the “M4 Efficacy” value was “++ (efficacy was calculated to be from 100% to 25%)”. Also, the “M4 Activity” value at M4 muscarinic receptor is reported as “+++ (activity was measured to be less than 1.0 μM)”. The “M2 Efficacy” value on M2 muscarinic receptor (setting [1]) is listed as “+ (efficacy was calculated to be less than 25%)”. Besides, the “M2 Activity” value on M2 muscarinic receptor is given as “+ (activity was measured to be greater than 5.0 μM)”.

`COc1ccccc1C1CCN(C2CCCC(C)C2)CC1` (stereo not shown) [Compound 398]: the Emax at M3 muscarinic receptor (setting [1]) was below 25%; at M1 muscarinic receptor (setting [1]), 25 to 100%; at M4 muscarinic receptor (setting [1]), 25 to 100%; at M2 muscarinic receptor (setting [1]), below 25%. Also, on M3 muscarinic receptor, the “M3 Activity” value is “+ (activity was measured to be greater than 5.0 μM)”. Also, the “M1 Activity” value at M1 muscarinic receptor was “+ (activity was measured to be greater than 5.0 μM)”. In addition, the “M4 Activity” value at M4 muscarinic receptor is on record as “+++ (activity was measured to be less than 1.0 μM)”. In addition, the “M2 Activity” value at M2 muscarinic receptor was “+ (activity was measured to be greater than 5.0 μM)”.

For `COc1ccc(-c2ccc(CC#N)cc2)cc1C1CCN(C2CCCCC2)CC1` [Compound 399], the Emax at M3 muscarinic receptor (setting [1]) was below 25%; at M1 muscarinic receptor (setting [1]), below 25%; at M4 muscarinic receptor (setting [1]), 25 to 100%; at M2 muscarinic receptor (setting [1]) it was below 25%. The “M3 Activity” value on M3 muscarinic receptor is listed as “+ (activity was measured to be greater than 5.0 μM)”. Further, the “M1 Activity” value on M1 muscarinic receptor was “+ (activity was measured to be greater than 5.0 μM)”. The “M4 Activity” value at M4 muscarinic receptor is “++ (activity was measured to be from 1.0 μM to 5.0 μM)”. On M2 muscarinic receptor, the “M2 Activity” value was “+ (activity was measured to be greater than 5.0 μM)”.

Regarding `COc1ccc(-c2ccc(NC(C)=O)cc2)cc1C1CCN([C@H]2C[C@H]3CC[C@H]2C3)CC1` [Compound 400], the Emax at M3 muscarinic receptor (setting [1]), on M1 muscarinic receptor (setting [1]), at M4 muscarinic receptor (setting [1]) and on M2 muscarinic receptor (setting [1]) was below 25% each time. In addition, at M3 muscarinic receptor, the “M3 Activity” value was “+ (activity was measured to be greater than 5.0 μM)”. Further, the “M1 Activity” value at M1 muscarinic receptor is listed as “+ (activity was measured to be greater than 5.0 μM)”. Besides, the “M4 Activity” value at M4 muscarinic receptor was “+ (activity was measured to be greater than 5.0 μM)”. For the same compound, on M2 muscarinic receptor, the “M2 Activity” value was “+ (activity was measured to be greater than 5.0 μM)”.

`COc1ccc(-c2ccc(C(=O)NC3CC3)cc2)cc1C1CCN([C@H]2C[C@H]3CC[C@H]2C3)CC1` [Compound 401]: the maximum response (Emax) on M3 muscarinic receptor (setting [1]), at M1 muscarinic receptor (setting [1]), at M4 muscarinic receptor (setting [1]) and at M2 muscarinic receptor (setting [1]) was below 25% each time. The “M3 Activity” value on M3 muscarinic receptor is given as “+ (activity was measured to be greater than 5.0 μM)”. Also, the “M1 Activity” value at M1 muscarinic receptor is “+ (activity was measured to be greater than 5.0 μM)”. On M4 muscarinic receptor, the “M4 Activity” value was “+ (activity was measured to be greater than 5.0 μM)”. Also, the “M2 Activity” value on M2 muscarinic receptor is “+ (activity was measured to be greater than 5.0 μM)”.

`COc1cccc(-c2ccccc2C2CCN([C@H]3C[C@H]4CC[C@H]3C4)CC2)c1OC` [Compound 402]: the maximal response (Emax) was below 25% at M3 muscarinic receptor (setting [1]), below 25% at M1 muscarinic receptor (setting [1]), 25 to 100% at M4 muscarinic receptor (setting [1]) and below 25% on M2 muscarinic receptor (setting [1]). Also, on M3 muscarinic receptor, the “M3 Activity” value is listed as “+ (activity was measured to be greater than 5.0 μM)”. Moreover, on M1 muscarinic receptor, the “M1 Activity” value is “+ (activity was measured to be greater than 5.0 μM)”. Also, the “M4 Activity” value on M4 muscarinic receptor was “++ (activity was measured to be from 1.0 μM to 5.0 μM)”. Further, at M2 muscarinic receptor, the “M2 Activity” value was “+ (activity was measured to be greater than 5.0 μM)”.

Consider `COc1ccc(-c2ccc(C(C)(C)C#N)cc2)cc1C1CCN(C2C[C@H]3CC[C@H]2C3)CC1` (stereo partly shown) [Compound 403], for which the Emax on M3 muscarinic receptor (setting [1]) was below 25%; at M1 muscarinic receptor (setting [1]), 25 to 100%; at M4 muscarinic receptor (setting [1]), 25 to 100%; on M2 muscarinic receptor (setting [1]), below 25%. Besides, the “M3 Activity” value at M3 muscarinic receptor was “+ (activity was measured to be greater than 5.0 μM)”. The “M1 Activity” value on M1 muscarinic receptor is recorded as “+ (activity was measured to be greater than 5.0 μM)”. Further, the “M4 Activity” value on M4 muscarinic receptor is reported as “++ (activity was measured to be from 1.0 μM to 5.0 μM)”. The “M2 Activity” value on M2 muscarinic receptor is “+ (activity was measured to be greater than 5.0 μM)”.
